Results published in ChEMBL document CHEMBL1201862, “PubChem BioAssay data set” (2004).
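Grown in 96-well plates, cells were treated for 48 hours with each compound at five concentrations. Insufficient inhibition: endpoint recorded as highest concentration tested. At the GI50, growth is halved.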 Activity calls are given as the source filed them. Cut-off read from the data, not from the text of the source: active = GI50 up to about 1.1 µM and inactive = higher.

What was measured:
Assay in all cases: DTP human tumour cell line panel, 48 h
UACC-257 = system: UACC-257
MOLT-4 = system: MOLT-4
NCI-H23 = system: NCI-H23
SW-620 = system: SW-620
A498 = system: A498
HOP-92 = system: HOP-92
SF-295 = system: SF-295
EKVX = system: EKVX
SK-MEL-2 = system: SK-MEL-2
MDA-MB-435 = system: MDA-MB-435
UO-31 = system: UO-31
786-0 = system: 786-0
KM12 = system: KM12
ACHN = system: ACHN
Hs-578T = system: Hs-578T
OVCAR-3 = system: OVCAR-3
SK-OV-3 = system: SK-OV-3
U-251 = system: U-251
A549 = system: A549
NCI-H460 = system: NCI-H460

| SMILES | GI50 (UACC-257) | GI50 (MOLT-4) | GI50 (NCI-H23) | GI50 (SW-620) | GI50 (A498) | GI50 (HOP-92) | GI50 (SF-295) | GI50 (EKVX) | GI50 (SK-MEL-2) | GI50 (MDA-MB-435) | GI50 (UO-31) | GI50 (786-0) | GI50 (KM12) | GI50 (ACHN) | GI50 (Hs-578T) | GI50 (OVCAR-3) | GI50 (SK-OV-3) | GI50 (U-251) | GI50 (A549) | GI50 (NCI-H460) |
| --- | --- | --- | --- | --- | --- | --- | --- | --- | --- | --- | --- | --- | --- | --- | --- | --- | --- | --- | --- | --- |
| CCCCCCCCCC(=O)CC(=O)c1c(O)cc(O)cc1O | 23.4 µM (inactive) | 12.9 µM (inactive) | 17.3 µM (inactive) | 25.6 µM (inactive) | 22.6 µM (inactive) | 20 µM (inactive) | 25.9 µM (inactive) | 31.5 µM (inactive) | 17.7 µM (inactive) | 16.9 µM (inactive) | 15.5 µM (inactive) | 28 µM (inactive) | 18.1 µM (inactive) | 27 µM (inactive) | 18.5 µM (inactive) | 16.4 µM (inactive) | 35 µM (inactive) | 23.8 µM (inactive) | 25.6 µM (inactive) | – |
| Cc1cc(C)n(CN(Cn2nc(C)cc2C)C2CCCCC2)n1 | 28.1 µM (inactive) | – | 24 µM (inactive) | 29.7 µM (inactive) | > 100 µM (inactive) | 28.8 µM (inactive) | 94 µM (inactive) | 31.8 µM (inactive) | 17.6 µM (inactive) | 22.2 µM (inactive) | 20.8 µM (inactive) | 23.1 µM (inactive) | 21.2 µM (inactive) | 23.4 µM (inactive) | > 100 µM (inactive) | 25.9 µM (inactive) | 38 µM (inactive) | 32.1 µM (inactive) | 66.2 µM (inactive) | 61.8 µM (inactive) |
| CSc1nc(=O)c(C#N)c(-c2ccccc2)n1C1OC(COC(C)=O)C(OC(C)=O)C(OC(C)=O)C1OC(C)=O (centres undefined) | > 100 µM (inactive) | > 100 µM (inactive) | > 100 µM (inactive) | > 100 µM (inactive) | > 100 µM (inactive) | 46.9 µM (inactive) | > 100 µM (inactive) | > 100 µM (inactive) | > 100 µM (inactive) | > 100 µM (inactive) | 39.2 µM (inactive) | 82.6 µM (inactive) | > 100 µM (inactive) | > 100 µM (inactive) | 39.8 µM (inactive) | 78.3 µM (inactive) | > 100 µM (inactive) | > 100 µM (inactive) | 69.3 µM (inactive) | 31.3 µM (inactive) |
| O=C(/C=C/c1ccccc1)Nc1ccccc1SCCCCl | 18.2 µM (inactive) | 12.7 µM (inactive) | 3.56 µM (inactive) | 6.46 µM (inactive) | 9.08 µM (inactive) | 3.67 µM (inactive) | 7.89 µM (inactive) | 15.4 µM (inactive) | 22.2 µM (inactive) | 4.95 µM (inactive) | 7.48 µM (inactive) | 13.4 µM (inactive) | 3.78 µM (inactive) | 20 µM (inactive) | 6.81 µM (inactive) | 13.1 µM (inactive) | 8.41 µM (inactive) | 8.93 µM (inactive) | 25 µM (inactive) | 10.2 µM (inactive) |
| N=C(N)Nc1ccc(CC(N)NCC(=O)O)cc1 (centres undefined) | > 25 µM (inactive) | > 25 µM (inactive) | > 25 µM (inactive) | > 25 µM (inactive) | > 25 µM (inactive) | > 25 µM (inactive) | > 25 µM (inactive) | > 25 µM (inactive) | > 25 µM (inactive) | > 25 µM (inactive) | > 25 µM (inactive) | > 25 µM (inactive) | > 25 µM (inactive) | > 25 µM (inactive) | > 25 µM (inactive) | > 25 µM (inactive) | > 25 µM (inactive) | > 25 µM (inactive) | > 25 µM (inactive) | – |
| O=C1CC(=O)n2cnc3cccc(c32)N1 | > 100 µM (inactive) | – | > 100 µM (inactive) | > 100 µM (inactive) | > 100 µM (inactive) | > 100 µM (inactive) | > 100 µM (inactive) | > 100 µM (inactive) | > 100 µM (inactive) | > 100 µM (inactive) | > 100 µM (inactive) | > 100 µM (inactive) | > 100 µM (inactive) | – | > 100 µM (inactive) | > 100 µM (inactive) | > 100 µM (inactive) | > 100 µM (inactive) | > 100 µM (inactive) | > 100 µM (inactive) |
| CC(=O)c1ccc(Br)cc1NC1=CC(=O)c2ncccc2C1=O | 1.48 µM (inactive) | 2.29 µM (inactive) | 2 µM (inactive) | – | 1.57 µM (inactive) | 12.2 µM (inactive) | 4.62 µM (inactive) | 6.4 µM (inactive) | 4.09 µM (inactive) | 1.69 µM (inactive) | 3.86 µM (inactive) | 3.71 µM (inactive) | 1.83 µM (inactive) | 3.6 µM (inactive) | 17.1 µM (inactive) | 1.61 µM (inactive) | 15.7 µM (inactive) | 6.22 µM (inactive) | 2.4 µM (inactive) | 1.12 µM (active) |
| CC(=O)Nc1ccc(OC/C(N)=N/NC(=O)c2ccncc2)cc1 | > 100 µM (inactive) | > 100 µM (inactive) | > 100 µM (inactive) | > 100 µM (inactive) | > 100 µM (inactive) | > 100 µM (inactive) | > 100 µM (inactive) | > 100 µM (inactive) | > 100 µM (inactive) | > 100 µM (inactive) | – | > 100 µM (inactive) | > 100 µM (inactive) | > 100 µM (inactive) | > 100 µM (inactive) | > 100 µM (inactive) | > 100 µM (inactive) | > 100 µM (inactive) | > 100 µM (inactive) | > 100 µM (inactive) |
| N=C(/C=C/c1ccc(-c2cn3cc(/C=C/C(=N)N4CCOCC4)ccc3n2)cc1)N1CCOCC1 | > 100 µM (inactive) | – | > 100 µM (inactive) | > 100 µM (inactive) | > 100 µM (inactive) | > 100 µM (inactive) | > 100 µM (inactive) | > 100 µM (inactive) | > 100 µM (inactive) | > 100 µM (inactive) | > 100 µM (inactive) | > 100 µM (inactive) | > 100 µM (inactive) | > 100 µM (inactive) | > 100 µM (inactive) | > 100 µM (inactive) | > 100 µM (inactive) | > 100 µM (inactive) | > 100 µM (inactive) | > 100 µM (inactive) |
| CN(C)c1ccc(C=C2N=C(c3ccccc3)N(c3cc(C(=O)c4ccccc4)ccc3N3C(=O)/C(=C/c4ccc(N(C)C)cc4)N=C3c3ccccc3)C2=O)cc1 | 6.43 µM (inactive) | 3.38 µM (inactive) | – | 5.32 µM (inactive) | 3.48 µM (inactive) | > 100 µM (inactive) | 3.76 µM (inactive) | 20.5 µM (inactive) | 3.29 µM (inactive) | 1.9 µM (inactive) | 15.8 µM (inactive) | 6.17 µM (inactive) | 3.71 µM (inactive) | 6.31 µM (inactive) | 4.2 µM (inactive) | 2.12 µM (inactive) | 4.75 µM (inactive) | 3.67 µM (inactive) | 6.31 µM (inactive) | 3.94 µM (inactive) |
| Cc1cc2ccccc2c[n+]1CC(=O)CC([O-])(C(F)(F)F)C(F)(F)F | > 100 µM (inactive) | 79.8 µM (inactive) | 87.5 µM (inactive) | > 100 µM (inactive) | 36.1 µM (inactive) | 58.1 µM (inactive) | > 100 µM (inactive) | > 100 µM (inactive) | > 100 µM (inactive) | > 100 µM (inactive) | > 100 µM (inactive) | > 100 µM (inactive) | – | > 100 µM (inactive) | > 100 µM (inactive) | 53.2 µM (inactive) | > 100 µM (inactive) | > 100 µM (inactive) | > 100 µM (inactive) | > 100 µM (inactive) |
| O=C(Cn1c2ccc(Br)cc2c2nc3ccccc3nc21)N1CCOCC1 | > 100 µM (inactive) | > 100 µM (inactive) | 53 µM (inactive) | > 100 µM (inactive) | > 100 µM (inactive) | 12.8 µM (inactive) | > 100 µM (inactive) | – | > 100 µM (inactive) | > 100 µM (inactive) | > 100 µM (inactive) | > 100 µM (inactive) | > 100 µM (inactive) | > 100 µM (inactive) | 49.1 µM (inactive) | > 100 µM (inactive) | > 100 µM (inactive) | > 100 µM (inactive) | 98.4 µM (inactive) | > 100 µM (inactive) |
| CCOC(=O)Oc1cc2c(c(OC)c1OC)-c1ccc(OC)c(=O)cc1C(NC(C)=O)CC2 (centres undefined) | 0.0146 µM (active) | 0.0179 µM (active) | 0.0187 µM (active) | < 0.0122 µM (active) | 0.0541 µM (active) | 0.0968 µM (active) | 0.0574 µM (active) | 19.1 µM (inactive) | 0.0123 µM (active) | < 0.01 µM (active) | 5.35 µM (inactive) | 0.0345 µM (active) | 0.0172 µM (active) | 0.398 µM (active) | 0.0619 µM (active) | 0.0166 µM (active) | 0.114 µM (active) | 0.0212 µM (active) | 0.168 µM (active) | 0.0468 µM (active) |
| CCN(CC)CCNc1ccc2nnn3c4ccc([N+](=O)[O-])cc4c(=O)c1c23 | 10 µM (inactive) | 2.13 µM (inactive) | 10.8 µM (inactive) | 3 µM (inactive) | 6.3 µM (inactive) | 11.3 µM (inactive) | 5.82 µM (inactive) | 14.1 µM (inactive) | 9.75 µM (inactive) | > 100 µM (inactive) | 3.44 µM (inactive) | 4.34 µM (inactive) | 6.28 µM (inactive) | 3.28 µM (inactive) | 14.1 µM (inactive) | > 79.6 µM (inactive) | > 37.6 µM (inactive) | 5.21 µM (inactive) | 4.47 µM (inactive) | 3.93 µM (inactive) |
